Where “and” joins values, the source holds several entries; their conditions need not be identical. Equal values may be shown once. Residues, ends and D or L forms follow the SMILES beside them. *: point of attachment. Lauroyl = CCCCCCCCCCCC(=O)*
Target: Chymotrypsin
Assay: Inhibition of enzymatic degradation of a chromogenic substrate (Example 202)
Format: biochemical
Details: substrate N-succinyl-Ala-Ala-Pro-Phe-p-Nitroanilide
Description: The use of chromogenic substrates to monitor activity of proteolytic enzymes is known in the field (for example DelMar, E. G., et al., Anal. Biochem., 99, 316-320, (1979)). For example, N-succinyl-Ala-Ala-Pro-Phe-p-Nitroanilide is commonly used substrate for measuring chymotrypsin activity. Enzymatic cleavage of 4-nitroanilide substrates yields 4-nitroaniline (yellow color under alkaline conditions).
An assay following the increase in absorbance at 395 nm as a function of time was established in 96 well format using Varioskan Flash Multimode Meter (Thermo Scientific). Each well contained 70 μl of Dulbecco's phosphate buffer saline (Invitrogen catalogue #14190-094), 10 μl of N-succinyl-Ala-Ala-Pro-Phe-p-Nitroanilide (Sigma cat# S 7388) in DMSO (different concentrations were used in order to obtain the inhibition constant), 10 μl of N-terminally acylated peptide or oligopeptide of the invention in varying concentration and 10 μl of a stock solution of an enzyme (chymotrypsin, trypsin, elastase, etc.). The incubations were performed at 37° C. Absorbance at 395 nm was measured immediately after addition of the enzyme to the 96 well plate and also every minute for the next 80 minutes. The concentration of the enzyme was optimized to allow determination of slopes for the time course of initial absorbance increase with and without added inhibitors. The slopes were determined by linear regression of the linear part of the fluorescence trace (for example, the first 10 min of the reaction). Each assay was performed in duplicate and average of the two traces was included in the calculations. The relative effect of N-terminally acylated peptide or oligopeptides of the invention on enzymatic degradation of N-succinyl-Ala-Ala-Pro-Phe-p-Nitroanilide was obtained by comparison of the slopes achieved by the same concentration of the N-terminally acylated peptide or oligopeptides. […] This was done by plotting the slopes achieved with different concentrations of the N-terminally acylated peptide or oligopeptides of the invention as a function of their concentrations and fitting the experimental results using, for example, sigmoidal logistic regression (2 parameters, Sigma Plot v 11). Inhibition constants for the interaction between the N-terminally acylated peptide or oligopeptides of the invention and proteolytic enzymes were also obtained by performing the assay described above with varying concentrations of the inhibitor and substrate and analyzing the results, for example, by double reciprocal transformation as known to the person skilled in the art and described for example in Hubalek, F. et al., J. Med. Chem. 47, 1760-1766 (2004).

Q: Which results are given for `CCCCCCCCCCCC(=O)N[C@@H](C)C(=O)N[C@@H](C)C(=O)N1CCC[C@H]1C(=O)N[C@@H](Cc1ccccc1)C(=O)O` [Example 34, N-dodecanoyl-Ala-Ala-Pro-Phe-OH] (Lauroyl-AAPF-OH)?
A: Ki (chymotrypsin): ~130 µM and ~150 µM; kind of enzyme inhibition (chymotrypsin): competitive inhibition; Ki: 130 µM

Source: patent US20150038435A1, “N-TERMINALLY MODIFIED OLIGOPEPTIDES AND USES THEREOF” (Novo Nordisk A/S, priority 2012, published 2015)
